Test [1] has as its target T1, Type-1 angiotensin II receptor (Homo sapiens) (UniProt P30556).
T1 sequence (whole entry): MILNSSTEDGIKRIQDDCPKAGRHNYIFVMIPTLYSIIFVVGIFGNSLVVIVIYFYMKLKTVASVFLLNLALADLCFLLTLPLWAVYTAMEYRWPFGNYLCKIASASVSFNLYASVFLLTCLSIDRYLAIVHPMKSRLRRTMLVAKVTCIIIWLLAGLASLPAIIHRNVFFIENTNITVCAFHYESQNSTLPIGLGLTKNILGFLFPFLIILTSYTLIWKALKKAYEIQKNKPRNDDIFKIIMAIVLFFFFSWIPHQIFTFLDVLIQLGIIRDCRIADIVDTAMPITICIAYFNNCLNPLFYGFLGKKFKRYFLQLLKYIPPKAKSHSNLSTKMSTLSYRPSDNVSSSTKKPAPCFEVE
Put plainly: (§1) Displacement of 125[I-Sar1-Ile8]ANG II from human AT1 receptor expressed in HEK293 membranes after 1 hr by gamma counting. In kind it is cell membranes.

Test [2] in a line: Antagonist activity at AT1 receptor in rat uterus assessed inhibition of ANG II-induced contraction.
For test [3], the target named is T2, Type-1 angiotensin II receptor (Homo sapiens, UniProt P30556).
T2 sequence (P30556 whole entry): T1 sequence (whole entry)
The description is as §1. The class given is cell membranes.

`CCCCc1c(I)nc(CO)n1Cc1ccc(-c2ccccc2-c2nn[nH]n2)cc1`: the Activity result in test [1] is “Dose-dependent effect”. The compound further returned a pA2 in test [2] of 7.35.

On to `CCCCc1cnc(C(=O)O)n1Cc1ccc(-c2ccccc2-c2nnn[nH]2)cc1`, for which the IC50 was 3 nM in test [3] (read-out: IC50) and 3.47 nM in test [3] (read-out: pIC50 (converted)).

In the case of `CCCCc1cnc(CO)n1Cc1ccc(-c2ccccc2-c2nn[nH]n2)cc1`, the Activity result in test [1] was “Dose-dependent effect”. This compound registered a pA2 in test [2] of 7.97.

For the compound `CCCCc1c(Cl)nc(CO)n1Cc1ccc(-c2ccccc2-c2nn[nH]n2)cc1`, the Activity entry in test [1] was “Dose-dependent effect”. Further, the IC50 in test [3] (read-out: IC50) came to 634 nM. Moreover, in test [2], the pA2 stood at 6.98.

As to `CCCCc1nc(Cl)c(CO)n1Cc1ccc(-c2ccccc2-c2nnn[nH]2)cc1`, the Activity entry in test [1] is “Dose-dependent effect”.

Take `CCCCc1c(Br)nc(CO)n1Cc1ccc(-c2ccccc2-c2nn[nH]n2)cc1`: in test [1], the Activity result was “Dose-dependent effect”. Moreover, in test [2], the pA2 stood at 7.58.

`CCCCc1cnc(CO)n1Cc1ccc(-c2ccccc2-c2nnn[nH]2)cc1`: in test [3] (read-out: IC50), the IC50 worked out at 30 nM.

Take `CCCCc1cnc(C=O)n1Cc1ccc(-c2ccccc2-c2nn[nH]n2)cc1`: the Activity entry in test [1] is “Dose-dependent effect”. Further, the IC50 in test [3] (read-out: IC50) was determined as 24 nM. Also, the pA2 in test [2] came to 7.76.

As to `CCCCc1cnc(C(=O)O)n1Cc1ccc(-c2ccccc2-c2nn[nH]n2)cc1`, the Activity result in test [1] is “Dose-dependent effect”. In test [2], this compound displayed a pA2 of 7.83.

For the compound `CCCCc1c(Br)nc(CO)n1Cc1ccc(-c2ccccc2-c2nnn[nH]2)cc1`, the IC50 in test [3] (read-out: IC50) was determined as 117 nM.

Consider `CCCCc1c(I)nc(CO)n1Cc1ccc(-c2ccccc2-c2nnn[nH]2)cc1`, for which the IC50 in test [3] (read-out: IC50) was found to be 446 nM.

For the compound `CCCCc1cnc(CO)n1Cc1ccc(-c2ccccc2C(=O)O)cc1`, the Activity result in test [1] is “Dose-dependent effect”. Also, the IC50 in test [3] (read-out: IC50) came to 245 nM. Besides, the pA2 in test [2] is 6.19.
